ChEMBL document CHEMBL4316596, “Antimicrobial Peptides with High Proteolytic Resistance for Combating Gram-Negative Bacteria” (J Med Chem, 2019)
In brackets after ≈: the same amount, converted by molar mass. Positions of bridges follow the written chain, without caps; N, C: chain ends. Non-standard residues stand in square brackets, D forms with d. Residues, ends and D or L forms follow the SMILES beside them. *: point of attachment. X1 = CC[C@H](C)CCCCC(=O)*; Dab = NCC[C@H](N)C(=O)O

Columns and labels:
[1] = system: Salmonella typhimurium; assay: Antimicrobial activity against Salmonella typhimurium C7731 after 24 hrs by NCCLS-protocol based assay; format: functional, Salmonella enterica subsp. enterica serovar Typhimurium; details: Salmonella enterica, C7731, 24 h
[2] = Antimicrobial activity against Salmonella pullorum C7913 after 24 hrs by NCCLS-protocol based assay; format: functional, Salmonella enterica subsp. enterica serovar Pullorum; details: Salmonella enterica, C7913, 24 h
[3] = system: Salmonella typhimurium; assay: Bactericidal activity against Salmonella typhimurium ATCC 14028 incubated for 4 hrs followed by culture spread on agar plates and cultured overnight; format: functional, Salmonella enterica subsp. enterica serovar Typhimurium; details: Salmonella enterica, ATCC 14028, 4 h; read-out: MBC>99.9
[4] = system: Pseudomonas aeruginosa; assay: Bactericidal activity against Pseudomonas aeruginosa CICC 21625 clinical isolates incubated for 4 hrs followed by culture spread on agar plates and cultured overnight; format: functional; details: CICC 21625, 4 h, read-out: MBC>99.9
[5] = system: Acinetobacter baumannii; assay: Bactericidal activity against Acinetobacter baumannii incubated for 4 hrs followed by culture spread on agar plates and cultured overnight; format: functional; details: read-out: MBC>99.9
[6] = system: Escherichia coli; assay: Antimicrobial activity against Escherichia coli K99 after 24 hrs by NCCLS-protocol based assay; format: functional; details: K99, 24 h
[7] = system: Escherichia coli; assay: Bactericidal activity against Escherichia coli ATCC 25922 incubated for 4 hrs followed by culture spread on agar plates and cultured overnight; format: functional; details: ATCC 25922, 4 h, read-out: MBC>99.9
[8] = system: Klebsiella pneumoniae; assay: Antimicrobial activity against Klebsiella pneumoniae after 24 hrs by NCCLS-protocol based assay; format: functional
[9] = system: Pseudomonas aeruginosa; assay: Bactericidal activity against Pseudomonas aeruginosa ATCC 27853 incubated for 4 hrs followed by culture spread on agar plates and cultured overnight; format: functional; details: ATCC 27853, 4 h, read-out: MBC>99.9
[10] = system: Escherichia coli; assay: Antimicrobial activity against Escherichia coli ATCC 25922 after 24 hrs by NCCLS-protocol based assay; format: functional; details: ATCC 25922, 24 h
[11] = system: Pseudomonas aeruginosa; assay: Antimicrobial activity against Pseudomonas aeruginosa CICC 21630 clinical isolates after 24 hrs by NCCLS-protocol based assay; format: functional; details: CICC 21630, 24 h
[12] = system: Escherichia coli; assay: Bactericidal activity against Escherichia coli K99 incubated for 4 hrs followed by culture spread on agar plates and cultured overnight; format: functional; details: K99, 4 h, read-out: MBC>99.9
[13] = system: Pseudomonas aeruginosa; assay: Antimicrobial activity against Pseudomonas aeruginosa PAO1 after 24 hrs by NCCLS-protocol based assay; format: functional; details: PAO1, 24 h
[14] = system: Escherichia coli; assay: Antimicrobial activity against Escherichia coli UB1005 after 24 hrs by NCCLS-protocol based assay; format: functional; details: UB1005, 24 h
[15] = Bactericidal activity against Salmonella pullorum C7913 incubated for 4 hrs followed by culture spread on agar plates and cultured overnight; format: functional, Salmonella enterica subsp. enterica serovar Pullorum; details: Salmonella enterica, C7913, 4 h; read-out: MBC>99.9
[16] = system: Pseudomonas aeruginosa; assay: Antimicrobial activity against Pseudomonas aeruginosa 26305 clinical isolates after 24 hrs by NCCLS-protocol based assay; format: functional; details: Pseudomonas aeruginosa, 26305, 24 h
[17] = system: Salmonella typhimurium; assay: Bactericidal activity against Salmonella typhimurium C7731 incubated for 4 hrs followed by culture spread on agar plates and cultured overnight; format: functional, Salmonella enterica subsp. enterica serovar Typhimurium; details: Salmonella enterica, C7731, 4 h; read-out: MBC>99.9
[18] = system: Acinetobacter baumannii; assay: Antimicrobial activity against Acinetobacter baumannii after 24 hrs by NCCLS-protocol based assay; format: functional
[19] = system: Pseudomonas aeruginosa; assay: Bactericidal activity against Pseudomonas aeruginosa CICC 21630 clinical isolates incubated for 4 hrs followed by culture spread on agar plates and cultured overnight; format: functional; details: CICC 21630, 4 h, read-out: MBC>99.9
[20] = system: Escherichia coli; assay: Antimicrobial activity against Escherichia coli K88 after 24 hrs by NCCLS-protocol based assay; format: functional; details: K88, 24 h
[21] = system: Escherichia coli; assay: Antimicrobial activity against Escherichia coli 078 after 24 hrs by NCCLS-protocol based assay; format: functional; details: Escherichia coli, 078, 24 h
[22] = system: Pseudomonas aeruginosa; assay: Antimicrobial activity against Pseudomonas aeruginosa CICC 21625 clinical isolates after 24 hrs by NCCLS-protocol based assay; format: functional; details: CICC 21625, 24 h
[23] = system: Pseudomonas aeruginosa; assay: Antimicrobial activity against Pseudomonas aeruginosa ATCC 27853 after 24 hrs by NCCLS-protocol based assay; format: functional; details: ATCC 27853, 24 h
[24] = system: Klebsiella pneumoniae; assay: Bactericidal activity against Klebsiella pneumoniae incubated for 4 hrs followed by culture spread on agar plates and cultured overnight; format: functional; details: read-out: MBC>99.9
[25] = system: Escherichia coli; assay: Bactericidal activity against Escherichia coli 078 incubated for 4 hrs followed by culture spread on agar plates and cultured overnight; format: functional; details: Escherichia coli, 078, 4 h; read-out: MBC>99.9
[26] = system: Pseudomonas aeruginosa; assay: Bactericidal activity against Pseudomonas aeruginosa 26305 clinical isolates incubated for 4 hrs followed by culture spread on agar plates and cultured overnight; format: functional; details: Pseudomonas aeruginosa, 26305, 4 h; read-out: MBC>99.9
[27] = system: Pseudomonas aeruginosa; assay: Bactericidal activity against Pseudomonas aeruginosa 25349 clinical isolates incubated for 4 hrs followed by culture spread on agar plates and cultured overnight; format: functional; details: Pseudomonas aeruginosa, 25349, 4 h; read-out: MBC>99.9
[28] = system: Pseudomonas aeruginosa; assay: Antimicrobial activity against Pseudomonas aeruginosa 25349 clinical isolates after 24 hrs by NCCLS-protocol based assay; format: functional; details: Pseudomonas aeruginosa, 25349, 24 h
[29] = system: Escherichia coli; assay: Bactericidal activity against Escherichia coli UB1005 incubated for 4 hrs followed by culture spread on agar plates and cultured overnight; format: functional; details: UB1005, 4 h, read-out: MBC>99.9
[30] = system: Salmonella typhimurium; assay: Antimicrobial activity against Salmonella typhimurium ATCC 14028 after 24 hrs by NCCLS-protocol based assay; format: functional, Salmonella enterica subsp. enterica serovar Typhimurium; details: Salmonella enterica, ATCC 14028, 24 h
[31] = system: Escherichia coli; assay: Bactericidal activity against Escherichia coli K88 incubated for 4 hrs followed by culture spread on agar plates and cultured overnight; format: functional; details: K88, 4 h, read-out: MBC>99.9
[32] = system: Pseudomonas aeruginosa; assay: Bactericidal activity against Pseudomonas aeruginosa PAO1 incubated for 4 hrs followed by culture spread on agar plates and cultured overnight; format: functional; details: PAO1, 4 h, read-out: MBC>99.9

| Compound | MIC95 [1] | MIC95 [2] | MBC [3] | MBC [4] | MBC [5] | MIC95 [6] | MBC [7] | MIC95 [8] | MBC [9] | MIC95 [10] | MIC95 [11] | MBC [12] | MIC95 [13] | MIC95 [14] | MBC [15] | MIC95 [16] | MBC [17] | MIC95 [18] | MBC [19] | MIC95 [20] | also measured |
| --- | --- | --- | --- | --- | --- | --- | --- | --- | --- | --- | --- | --- | --- | --- | --- | --- | --- | --- | --- | --- | --- |
| H-IRPIIRPIIRPIIRPIIRPIIRPIIRPIIRPI-NH2 | 64 µM | 4 µM | 16 µM | > 64 µM | 4 µM | 1 µM | 2 µM | 4 µM | 8 µM | 2 µM | > 64 µM | 2 µM | 4 µM | 2 µM | 4 µM | > 64 µM | > 64 µM | 2 µM | > 64 µM | 2 µM | MIC95 [21]: 2 µM; MIC95 [22]: > 64 µM; MIC95 [23]: 8 µM; MBC [24]: 8 µM; MBC [25]: 2 µM; MBC [26]: > 64 µM; MBC [27]: > 64 µM; MIC95 [28]: > 64 µM; MBC [29]: 2 µM; MIC95 [30]: 8 µM; MBC [31]: 2 µM; MBC [32]: 4 µM |
| H-LRPLLRPLLRPLLRPL-NH2 | 64 µM | 8 µM | 64 µM | > 64 µM | 8 µM | 32 µM | 8 µM | > 64 µM | > 64 µM | 8 µM | > 64 µM | 32 µM | > 64 µM | 32 µM | 16 µM | > 64 µM | 64 µM | 2 µM | > 64 µM | 8 µM | MIC95 [21]: 16 µM; MIC95 [22]: 64 µM; MIC95 [23]: > 64 µM; MBC [24]: > 64 µM; MBC [25]: 16 µM; MBC [26]: > 64 µM; MBC [27]: > 64 µM; MIC95 [28]: > 64 µM; MBC [29]: 32 µM; MIC95 [30]: 32 µM; MBC [31]: 8 µM; MBC [32]: > 64 µM |
| CC[C@H](C)CCCCC(=O)N[C@@H](CCN)C(=O)N[C@H](C(=O)N[C@@H](CCN)C(=O)N[C@H]1CCNC(=O)[C@H]([C@@H](C)O)NC(=O)[C@H](CCN)NC(=O)[C@H](CCN)NC(=O)[C@H](CC(C)C)NC(=O)[C@@H](Cc2ccccc2)NC(=O)[C@H](CCN)NC1=O)[C@@H](C)O (X1-[Dab]T[Dab][Dab][Dab][dF]L[Dab][Dab]T; lactam 4-C) | 2 µM (≈ 2.41 µg/mL) | 0.5 µM (≈ 0.602 µg/mL) | 4 µM (≈ 4.81 µg/mL) | 8 µM (≈ 9.63 µg/mL) | 0.25 µM (≈ 0.301 µg/mL) | 2 µM (≈ 2.41 µg/mL) | 2 µM (≈ 2.41 µg/mL) | 4 µM (≈ 4.81 µg/mL) | 2 µM (≈ 2.41 µg/mL) | 1 µM (≈ 1.2 µg/mL) | 4 µM (≈ 4.81 µg/mL) | 2 µM (≈ 2.41 µg/mL) | 16 µM (≈ 19.3 µg/mL) | 0.5 µM (≈ 0.602 µg/mL) | 1 µM (≈ 1.2 µg/mL) | 4 µM (≈ 4.81 µg/mL) | 4 µM (≈ 4.81 µg/mL) | 0.25 µM (≈ 0.301 µg/mL) | 8 µM (≈ 9.63 µg/mL) | 0.5 µM (≈ 0.602 µg/mL) | MIC95 [21]: 1 µM (≈ 1.2 µg/mL); MIC95 [22]: 4 µM (≈ 4.81 µg/mL); MIC95 [23]: 2 µM (≈ 2.41 µg/mL); MBC [24]: 8 µM (≈ 9.63 µg/mL); MBC [25]: 2 µM (≈ 2.41 µg/mL); MBC [26]: 4 µM (≈ 4.81 µg/mL); MBC [27]: 4 µM (≈ 4.81 µg/mL); MIC95 [28]: 2 µM (≈ 2.41 µg/mL); MBC [29]: 1 µM (≈ 1.2 µg/mL); MIC95 [30]: 2 µM (≈ 2.41 µg/mL); MBC [31]: 1 µM (≈ 1.2 µg/mL); MBC [32]: 32 µM (≈ 38.5 µg/mL) |
| H-LRPLLRPLLRPLLRPLLRPLLRPLLRPLLRPL-NH2 | 2 µM | 1 µM | 4 µM | 8 µM | 1 µM | 1 µM | 2 µM | 2 µM | 4 µM | 2 µM | 4 µM | 2 µM | 2 µM | 2 µM | 2 µM | 2 µM | 4 µM | 1 µM | 4 µM | 1 µM | MIC95 [21]: 1 µM; MIC95 [22]: 8 µM; MIC95 [23]: 2 µM; MBC [24]: 4 µM; MBC [25]: 2 µM; MBC [26]: 4 µM; MBC [27]: 4 µM; MIC95 [28]: 2 µM; MBC [29]: 4 µM; MIC95 [30]: 2 µM; MBC [31]: 1 µM; MBC [32]: 4 µM |
